{
  "source": "patent US20250339091A1",
  "about": "“HONEY BEE-DERIVED BIOACTIVE WOUND DRESSING WITH SUSTAINED ANTIMICROBIAL RELEASE” (priority 2025, published 2025)",
  "assay": "fluorescent dye diffusion assays in simulated wound fluid",
  "type": "physicochemical",
  "method": "For example, in experiments using rhodamine B as a tracer molecule, diffusion coefficients within the patterned hydrogel matrix increased from 1.4×10^−7 cm^2/s at 35° C. to 3.6×10^−7 cm^2/s at 37.5° C., confirming the gating effect of the thermoresponsive architecture. The permeability enhancement facilitates more rapid passive diffusion of bioactive agents—such as hydrogen peroxide from raw honey or flavonoids from propolis extract—from the surrounding microcapsules into the wound site, even before active actuator-based release is triggered. This early-stage, temperature-coupled passive transport acts as a preemptive therapeutic buffer, delivering antimicrobials during acute inflammatory flares while reducing latency between pathogenic escalation and drug availability.",
  "data": [
    {"molecule": "CCN(CC)c1ccc2c(-c3ccccc3C(=O)O)c3ccc(=[N+](CC)CC)cc-3oc2c1.[Cl-]", "note": "[rhodamine B]", "values": [
      {"measurement": "diffusion coefficient within the patterned hydrogel matrix", "setting": "at 35° C.", "result": "1.4×10^−7 cm^2/s"},
      {"measurement": "diffusion coefficient within the patterned hydrogel matrix", "setting": "at 37.5° C.", "result": "3.6×10^−7 cm^2/s"}
    ]}
  ]
}
